The source of these data is patent publication US10000479B2, “Compounds and their methods of use” (AGIOS PHARMACEUTICALS, INC., priority 2014, dated 2018).

Where only a bound is given, the exact number is not on record here.

The target of the experiment is T1, glutaminase (GAC) (Homo sapiens, UniProt O94925).
T1 sequence (O94925 55-598 isoform O94925-3 limits assumed): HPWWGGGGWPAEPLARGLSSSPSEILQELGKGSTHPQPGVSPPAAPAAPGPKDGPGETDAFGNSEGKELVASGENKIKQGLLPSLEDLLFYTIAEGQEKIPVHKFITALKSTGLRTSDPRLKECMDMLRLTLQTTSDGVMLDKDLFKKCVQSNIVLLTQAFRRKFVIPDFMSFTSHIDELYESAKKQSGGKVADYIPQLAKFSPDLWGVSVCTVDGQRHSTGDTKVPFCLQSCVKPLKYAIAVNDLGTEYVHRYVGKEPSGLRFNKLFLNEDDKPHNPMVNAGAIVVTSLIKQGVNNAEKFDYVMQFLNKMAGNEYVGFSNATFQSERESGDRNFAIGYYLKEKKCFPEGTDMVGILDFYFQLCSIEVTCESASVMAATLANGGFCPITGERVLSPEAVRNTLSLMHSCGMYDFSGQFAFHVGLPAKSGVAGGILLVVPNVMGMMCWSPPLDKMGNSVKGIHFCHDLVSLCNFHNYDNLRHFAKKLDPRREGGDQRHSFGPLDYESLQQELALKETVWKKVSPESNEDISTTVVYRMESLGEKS
Kind of experiment: glutaminase coupled endpoint assay (Example A). It counts as biochemical. The note with it: inhibition of glutaminase; assay of Example A or Example B. How it is done:
In this example, the enzymatic activity of glutaminase is measured through a coupled endpoint assay. Glutamine and phosphate are supplied to GAC at a concentration equal to Km and AC50, respectively, and GAC concentration is adjusted to give a linear reaction for 60 minutes. The glutamate produced is converted to 2-OG by a kinetic excess of glutamate dehydrogenase. This second step is configured for 2× Km for NAD, since excess NAD is inhibitory. However, a kinetic excess of the third coupling enzyme, diaphorase, recycles NAD from NADH to keep the NAD concentration constant during the timecourse of the assay. Diaphorase, also supplied in kinetic excess, oxidizes NADH produced by GDH back to NAD with the concomitant reduction of rezasurin to the highly fluorescent resorufin. Resorufin in measured after the assay is stopped with SDS by Ex544/Em590. A reduction in the signal indicates inhibition of some component of the coupled enzyme system. Prospective hits are counterscreened against GDH/diaphorase alone to remove hits to the coupling enzyme system in a second assay.
2. Buffers • 2× Buffer (300 mM NaCl, 100 mM HEPES pH 8.5, 0.1% BSA, 0.5 mM EDTA, 100 mM sodium phosphate pH 8.5) • 5× Substrate Mix (1× Buffer final concentration, with 13 mM glutamine, 100 μM resazurin, 50 μg/ml diaphorase) • 1.2× Enzyme Mix (1× Buffer final concentration, with 0.875 μg/ml GAC, 1.56 mM NAD, 6.25 units/ml GDH) • Stop Mix (6% SDS in ddH20) Reaction Procedure • 1. Add 1 μl compound in 100% DMSO • 2. Add 40 μl of Enzyme Mix and incubate for 60 minute at room temperature • 3. Add 10 μl of Substrate Mix to start reaction • 4. Stop reaction with 25 μl of 6% SDS and read Ex544 Em 590
A compound described herein may be tested for its ability to inhibit glutaminase, e.g., by an assay as described in the Examples. For simplicity, the inhibition activity of these compounds is represented as an IC50 tested in an assay of Example A or Example B in Table 1. As shown, “A” refers to an inhibitor of glutaminase with an IC50<100 nM. “B” refers to inhibitor of glutaminase with an IC50 between 100 nM and 500 nM. “C” refers to inhibitor of glutaminase with an IC50 between 500 nM and 1000 nM. “D” refers to inhibitor of glutaminase with an IC50 between 1 μM and 2 μM. “E” refers to inhibitor of glutaminase with an IC50 between 2 μM and 10 μM. “N/A” refers to compounds wherein the IC50 is unavailable.
`O=C(Cc1ccccn1)Nc1ccc([C@@H]2CCC[C@@H](c3ccc(NC(=O)Cc4ccccn4)nn3)C2)nn1` (racemic) [Compound 14, Trans-(rac)-N,N′-(6,6′-(cyclohexane-1,3-diyl)bis(pyridazine-6,3-diyl))bis(2-(pyridin-2-yl)acetamide)]: the IC50 is < 100 nM.

In the case of `CCC(=O)Nc1ccc([C@@H]2CCC[C@H](c3ccc(NC(=O)CC)nn3)C2)nn1` [Compound 152, N,N′-(6,6′-((1R,3S)-Cyclohexane-1,3-diyl)bis(pyridazine-6,3-diyl))dipropionamide], the half-maximal inhibitory concentration (IC50) was < 100 nM.

`O=C(Cc1ccccc1)Nc1ccc([C@@H]2CCC[C@H](c3ccc(NC(=O)Cc4ccccc4)nn3)C2)nn1` [Compound 10, N,N′-(6,6′-((1R,3S)-cyclohexane-1,3-diyl)bis(pyridazine-6,3-diyl))bis(2-phenylacetamide)]: the half-maximal inhibitory concentration (IC50) was < 100 nM.

`O=C(Cc1ccccn1)Nc1ccc([C@@H]2CCC[C@H](c3ccc(NC(=O)Cc4ccccn4)nn3)C2)nn1` [Compound 20, N,N′-(6,6′-((1R,3S)-Cyclohexane-1,3-diyl)bis(pyridazine-6,3-diyl))bis(2-(pyridin-2-yl)acetamide)]: the IC50 is < 100 nM.

As to `CC(=O)Nc1ccc([C@@H]2CCC[C@H](c3ccc(NC(C)=O)nn3)C2)nn1` [Compound 99, N,N′-(6,6′-((1R,3S)-Cyclohexane-1,3-diyl)bis(pyridazine-6,3-diyl))diacetamide], the IC50 was < 100 nM.

As for `O=C(Nc1ccc([C@@H]2CCC[C@H](c3ccc(NC(=O)OCc4ccccc4)nn3)C2)nn1)OCc1ccccc1` [Compound 176, Dibenzyl (6,6′-((1R,3S)-cyclohexane-1,3-diyl)bis(pyridazine-6,3-diyl))dicarbamate], the half-maximal inhibitory concentration (IC50) was < 100 nM.

Take `O=C(Cc1ccccc1)Nc1ccc([C@H]2CCC[C@@H](c3nnc(NC(=O)Cc4ccccc4)s3)C2)nn1` [Compound 291, 2-Phenyl-N-(6-((1S,3R)-3-(5-(2-phenylacetamido)-1,3,4-thiadiazol-2-yl)cyclohexyl)pyridazin-3-yl)acetamide]: the IC50 was < 100 nM.

Consider `CC(C)C(=O)Nc1ccc([C@@H]2CCC[C@H](c3ccc(NC(=O)C(C)C)nn3)C2)nn1` [Compound 98, N,N′-(6,6′-((1R,3S)-Cyclohexane-1,3-diyl)bis(pyridazine-6,3-diyl))bis(2-methylpropanamide)], for which the IC50 was 100 to 500 nM.

On to `CCCC(=O)Nc1ccc([C@@H]2CCC[C@H](c3ccc(NC(=O)CCC)nn3)C2)nn1` [Compound 37, N,N′-(6,6′-((1R,3S)-Cyclohexane-1,3-diyl)bis(pyridazine-6,3-diyl))dibutyramide], for which the IC50 was < 100 nM.

On to `O=C(Cc1cccc(OC(F)(F)F)c1)Nc1ccc([C@@H]2CCC[C@H](c3ccc(NC(=O)Cc4cccc(OC(F)(F)F)c4)nn3)C2)nn1` [Compound 180], for which the concentration for half-maximal inhibition (IC50) fell in the range of 100 to 500 nM.

Consider `O=C(Cc1ccccn1)Nc1ccc(C2CCC(c3ccc(NC(=O)Cc4ccccn4)nn3)C2)nn1` (stereo not shown) [Compound 175, N, N′-(6,6′-(Cyclopentane-1,3-diyl)bis(pyridazine-6,3-diyl))bis(2-(pyridin-2-yl)acetamide)], for which the half-maximal inhibitory concentration (IC50) was < 100 nM.

The compound `O=C(Cc1ccc(OC(F)(F)F)cc1)Nc1ccc([C@H]2CCC[C@H](c3ccc(NC(=O)Cc4ccc(OC(F)(F)F)cc4)nn3)C2)nn1` (racemic) [Compound 75, Trans-(rac)-N,N′-(6,6′-(cyclohexane-1,3-diyl)bis(pyridazine-6,3-diyl))bis(2-(4-(trifluoromethoxy)phenyl)acetamide)] showed an IC50 of 2000 to 10000 nM.

In turn, `CC(=O)Nc1ccc([C@H]2CCC[C@H](c3ccc(NC(C)=O)nn3)C2)nn1` (racemic) [Compound 41, Trans-(rac)-N,N′-(6,6′-(cyclohexane-1,3-diyl)bis(pyridazine-6,3-diyl))diacetamide] displayed an IC50 of 2000 to 10000 nM.
